Test system: Caco-2 cells
Experiment: P31-43-induced epithelial stress markers in Caco-2 cells (immunoblot)
Format: cell-based, human
Protocol: Human colon adenocarcinoma-derived Caco-2 and T84 cells were obtained from the ATCC. Cells were maintained in T25 flask in Modified Eagle Medium (MEM) for Caco-2, or Ham's F12+DMEM (1:1) for T84, supplemented with 10% fetal bovine serum (FBS), 2 mM Glutamine+1% Non Essential Amino Acids (NEAA) and the antibiotics penicillin\streptomycin (100 units/ml) (all reagents from Lonza) (Luciani, A., et al. 2010. Cells were grown in Transwells (Corning, 3470 or 3460) under the normal condition (Luciani, A., et al. 2012). Briefly, 8×10^4 or 5×10^5 cells were seeded in 6.5-mm diameter or 12-mm diameter, respectively, and grown until the RT reached 800 to 1,200 Ω·cm2. Transwells with a pore size of 0.4 μm were used. Medium in both the apical and basolateral chambers was changed every other day. Cells were treated with 20 μg/ml of either α-gliadin peptide P31-43 or […]-69 or scrambled PGAV or modified P31-43 either biotin-tagged or not, for different time point (from 1 h short challenge up to 24 h). Cells were also treated with 50 or 100 μg/ml of […]-68 or PGAV peptides for 3 h. Caco-2 or T84 cells were also treated with: CFTR potentiators VX-770 (10 μM) or VX-532 (20 μM) (Selleck chemicals) or Genistein (10 μM) (Sigma-Aldrich) or in presence or absence of CFTR inhibitor172 (CFTRinh172, 20 μM) or 3-methyl-adenine (3-MA, 20 μM) (Calbiochem), Z-DON (20 nM, Zedira) or BAPTA-AM (10 μM, Calbiochem). The whole lysate or membrane fraction proteins of cell lines and mice intestine homogenates were obtained from treated and untreated cells or mice as described. The equal amount of protein were resolved by SDS-PAGE gel and blotted with antibodies against: SQSTM1, (Sigma Aldrich, 108k4767) 1:1000, PPARγ (Santa Cruz Biotechnology, sc7273) 1:500, BECN1 (Abcam, ab58878) 1:1000, CFTR clone M3A7 (Abcam, ab4067) 1:500, phospho-ERK1/2 (php42/44, Cell Signaling Technology, #91101) 1:1000, UVRAG (Santa Cruz Biotechnology sc8215) 1:1000, NHERF-1 (BD, 611161) 1:1000, EZRIN (BD, 610603) 1:1000, hVps34 (SigmaV9764) 1:300, biotin (Abcam, ab1227) 1:2000, PKAr2a (BD, 610625) 1:500, Ubiquitin (Cell Signaling clone P4D1, #3936) 1:1000, CHIP (Calbiochem PC711) 1:500, Caspase-1 p10 (M-20) (Santa Cruz Biotechnology, sc-514) 1:200, NLRP3 (Abcam, ab4207), 1:500, IDO1 (monoclonal; cv152) 1:1000^[80], used as primary antibodies. Normalization was performed by probing the membrane with anti-β-actin (Cell Signaling, #4970) 1:1000, anti-Gapdh (Sigma-Aldrich, G8795) 1:1000 and anti-flottilin (Abcam ab15148) 1:1000 antibodies. Immunoprecipitations of endogenous proteins were performed on 500 μg of lysates from Caco-2 cells. The proteins were incubated for 12-18 h at 4° C. with 10 ug\ml of specific antibody followed by the addition of Protein A/G-agarose beads for 4 h at 4° C. The beads were then washed three times with lysis buffer and Laemmli's sample buffer was added to the samples. The membranes were then blotted with: CFTR clone CF3 (Abcam, ab2784) 1:1000, TG2 (clone CUB7402; NeoMarkers) 1:1000, CHIP (Calbiochem PC711) 1:500, Ubiquitin (Cell Signaling clone P4D1 3936), isopeptide (Abcam 422) 1:1000, PKAR2 (BD 610625) 1:500. FIG. 5: a, Immunoprecipitation of TG2 protein 15 in Caco-2 cells challenged with […]-68, PGAV or P31-43 and blotted with HRP-streptavidin. b, Immunoprecipitation of CFTR protein in Caco-2 cells challenged with P31-43 in the presence of absence of the TG2 inhibitor ZDON or TG2 RNA silencing and 20 blotted with anti-isopeptide glutamime-lysine and anti-TG2 antibodies. c, Recombinant TG2 and/or NBD1 incubated in vitro with P31-43 and solved in native page in the presence or absence of Ca2+. d, Immunoprecipitation of CFTR protein and immunblot with anti-CFTR antibodies or anti-TG2 antibodies. e, Immunoprecipitation of CFTR protein and immunoblot with anti-TG2 or anti-CFTR antibodies; effects of ZDON and BAPTA-AM. f, In situ detection of TG2 activity in Caco-2 cells pulsed with Ca2+ in the presence or absence of VX-770 or Z-DON. […]

For `CC(C)(C)c1cc(C(C)(C)C)c(NC(=O)c2c[nH]c3ccccc3c2=O)cc1O` [VX-770, N-(2,4-di-tert-butyl-5-hydroxyphenyl)-4-oxo-1,4-dihydroquinoline-3-carboxamide], the “effect on P31-43-induced PKAr2a cross-linking and phospho-PKA decrease” value was “counteracted all these TG2-mediated effects of P31-43”, the “protection from P31-43-induced downregulation of PPARγ” value was “protected” and the “protection from P31-43-induced phosphorylation of ERK-1/2” value was “protected”. For the same compound, the “protection from P31-43-induced upregulation of HSP70 expression” value was “protected”.

In the case of “α-gliadin peptide LGQQQPFPPQQPY (SEQ ID 1), induces an enterocyte stress response (P31-43 sequence of alpha-gliadin)”, the “TG2-mediated cross-linking of PKAr2a” value was “stimulated TG2-mediated cross-linking” and the “abundance of phosphorylated PKA protein” value was “decrease in the abundance of phosphorylated PKA protein”.

From US20200206198A1, “CFTR CHANNEL ACTIVATOR FOR USE IN THE TREATMENT AND/OR PREVENTION OF GLUTEN SENSITIVITY CONDITIONS” (priority 2017, published 2020)
